Assay results taken from ChEMBL document CHEMBL1201862, “PubChem BioAssay data set” (2004).
Active and inactive are the calls of the source.

Columns and labels:
[1] = molecular target: T1, Probable nicotinate-nucleotide adenylyltransferase (Staphylococcus aureus (strain N315), UniProt P65502); format: functional, Staphylococcus aureus subsp. aureus N315;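 for IC50 Mean: confirmatory dose-response retesting of NadD inhibitor hits first found in an ultra-high-throughput screen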
Protein RecA = molecular target: T2, Protein RecA (Mycobacterium tuberculosis, UniProt P9WHJ3); assay: Fluorescence Cell-Free Homogeneous Dose Retest to Identify Inhibitors of RecA-Intein Splicing Activity. [Related pubchem assays (depositor defined):AID2097, AID2223, AID489010, AID492950]; format: functional
T2 sequence (P9WHJ3 whole entry): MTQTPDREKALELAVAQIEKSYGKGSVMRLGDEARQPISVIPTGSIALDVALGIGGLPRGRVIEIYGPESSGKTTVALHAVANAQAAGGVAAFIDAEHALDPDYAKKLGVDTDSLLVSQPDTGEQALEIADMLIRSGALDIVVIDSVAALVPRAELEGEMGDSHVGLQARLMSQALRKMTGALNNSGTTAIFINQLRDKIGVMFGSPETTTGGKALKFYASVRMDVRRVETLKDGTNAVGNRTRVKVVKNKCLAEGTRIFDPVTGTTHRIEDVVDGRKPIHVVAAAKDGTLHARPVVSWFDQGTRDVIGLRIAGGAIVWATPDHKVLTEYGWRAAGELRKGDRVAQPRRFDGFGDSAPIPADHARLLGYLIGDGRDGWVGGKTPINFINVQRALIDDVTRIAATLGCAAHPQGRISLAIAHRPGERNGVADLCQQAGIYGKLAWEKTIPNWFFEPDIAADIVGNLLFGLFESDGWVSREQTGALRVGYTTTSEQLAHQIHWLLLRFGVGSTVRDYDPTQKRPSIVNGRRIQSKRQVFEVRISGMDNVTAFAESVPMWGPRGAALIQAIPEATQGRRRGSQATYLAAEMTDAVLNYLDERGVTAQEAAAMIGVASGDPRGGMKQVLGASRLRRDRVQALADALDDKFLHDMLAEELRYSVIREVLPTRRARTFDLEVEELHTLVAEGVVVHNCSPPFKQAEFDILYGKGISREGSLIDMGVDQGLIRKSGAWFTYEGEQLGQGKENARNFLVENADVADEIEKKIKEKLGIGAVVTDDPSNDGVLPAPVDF

[2] = molecular target: T3, Replicative DNA helicase DnaB (Mycobacterium tuberculosis, UniProt P9WMR3); assay: DnaB intein splicing inhibitors, dose response, biochemical, cell-free fluorescence (AID 449749); format: functional
T3 sequence (P9WMR3 whole entry): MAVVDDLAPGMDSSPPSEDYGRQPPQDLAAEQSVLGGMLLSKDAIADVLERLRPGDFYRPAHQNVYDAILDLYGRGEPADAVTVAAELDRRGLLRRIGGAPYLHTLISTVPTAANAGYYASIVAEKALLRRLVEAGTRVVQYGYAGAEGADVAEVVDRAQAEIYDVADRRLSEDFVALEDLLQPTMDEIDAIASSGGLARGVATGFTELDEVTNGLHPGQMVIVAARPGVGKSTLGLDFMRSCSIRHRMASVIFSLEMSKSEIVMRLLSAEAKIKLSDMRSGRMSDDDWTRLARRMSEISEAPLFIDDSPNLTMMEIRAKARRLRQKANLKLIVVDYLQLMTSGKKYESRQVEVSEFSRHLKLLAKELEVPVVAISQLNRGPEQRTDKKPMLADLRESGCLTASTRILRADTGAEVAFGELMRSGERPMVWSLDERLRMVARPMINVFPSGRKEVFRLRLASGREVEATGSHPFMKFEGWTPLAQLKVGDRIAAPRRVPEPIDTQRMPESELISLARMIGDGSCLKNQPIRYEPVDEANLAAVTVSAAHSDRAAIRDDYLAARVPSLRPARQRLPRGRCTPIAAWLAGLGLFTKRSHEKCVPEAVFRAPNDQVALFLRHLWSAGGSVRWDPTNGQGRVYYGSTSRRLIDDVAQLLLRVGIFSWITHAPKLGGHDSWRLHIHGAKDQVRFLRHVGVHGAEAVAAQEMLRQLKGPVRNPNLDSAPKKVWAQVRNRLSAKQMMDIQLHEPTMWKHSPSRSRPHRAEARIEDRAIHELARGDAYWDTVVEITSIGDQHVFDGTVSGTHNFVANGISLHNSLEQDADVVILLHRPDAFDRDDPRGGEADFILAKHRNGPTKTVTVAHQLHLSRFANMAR

[3] = molecular target: T1, Probable nicotinate-nucleotide adenylyltransferase; format: functional, Staphylococcus aureus subsp. aureus N315; details: read-out: IC50_Mean
Paired box protein Pax-8 = Paired box protein Pax-8 (Homo sapiens, UniProt Q06710); assay: inhibitors of PAX8-driven TPO luciferase reporter, dose response, RMG-I cells, cherry-pick (AID 687027); format: functional, cell-based;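 note: luciferase reporter driven by Pax8 target thyroperoxidase promoter measured by SteadyGlo luminescence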
[4] = molecular target: T4, Microphthalmia-associated transcription factor (Homo sapiens, UniProt O75030); assay: TRPM1 promoter luciferase signal decrease, dose response, MITF inhibitor project, cell-based, SK-MEL-5, cherry-picked, set 3 (AID 493073); format: functional
T4 sequence (O75030 whole entry): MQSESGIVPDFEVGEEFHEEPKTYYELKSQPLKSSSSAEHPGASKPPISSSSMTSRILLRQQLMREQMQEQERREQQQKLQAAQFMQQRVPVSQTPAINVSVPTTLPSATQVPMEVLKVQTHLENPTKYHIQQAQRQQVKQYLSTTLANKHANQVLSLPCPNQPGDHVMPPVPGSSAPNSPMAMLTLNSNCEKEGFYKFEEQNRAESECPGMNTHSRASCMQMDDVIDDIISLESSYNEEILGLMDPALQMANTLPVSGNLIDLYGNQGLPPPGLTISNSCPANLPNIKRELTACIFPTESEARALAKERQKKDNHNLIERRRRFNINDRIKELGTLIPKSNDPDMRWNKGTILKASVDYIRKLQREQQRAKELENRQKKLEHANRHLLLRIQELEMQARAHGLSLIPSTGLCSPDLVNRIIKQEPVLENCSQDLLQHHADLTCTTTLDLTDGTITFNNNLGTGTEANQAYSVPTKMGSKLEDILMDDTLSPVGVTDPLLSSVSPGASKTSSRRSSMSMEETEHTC

[5] = non-specific cell cytotoxicity, dose response, cytotoxicity control for PAX8 inhibitor project, plate reader, dry powder samples (AID 743021); format: functional, cell-based
Nonstructural protein 1 = Nonstructural protein 1 (Influenza A virus, UniProt Q194T2); format: functional, Influenza A virus (A/California/07/2009(H1N1))
[6] = molecular target: T5, Sentrin-specific protease 1 (Homo sapiens, UniProt Q9P0U3); assay: potency of human SENP1 inhibitors, dose response, biochemical, kinetic FRET (AID 651697); format: functional; details: read-out: IC50_Mean
T5 sequence (Q9P0U3 whole entry): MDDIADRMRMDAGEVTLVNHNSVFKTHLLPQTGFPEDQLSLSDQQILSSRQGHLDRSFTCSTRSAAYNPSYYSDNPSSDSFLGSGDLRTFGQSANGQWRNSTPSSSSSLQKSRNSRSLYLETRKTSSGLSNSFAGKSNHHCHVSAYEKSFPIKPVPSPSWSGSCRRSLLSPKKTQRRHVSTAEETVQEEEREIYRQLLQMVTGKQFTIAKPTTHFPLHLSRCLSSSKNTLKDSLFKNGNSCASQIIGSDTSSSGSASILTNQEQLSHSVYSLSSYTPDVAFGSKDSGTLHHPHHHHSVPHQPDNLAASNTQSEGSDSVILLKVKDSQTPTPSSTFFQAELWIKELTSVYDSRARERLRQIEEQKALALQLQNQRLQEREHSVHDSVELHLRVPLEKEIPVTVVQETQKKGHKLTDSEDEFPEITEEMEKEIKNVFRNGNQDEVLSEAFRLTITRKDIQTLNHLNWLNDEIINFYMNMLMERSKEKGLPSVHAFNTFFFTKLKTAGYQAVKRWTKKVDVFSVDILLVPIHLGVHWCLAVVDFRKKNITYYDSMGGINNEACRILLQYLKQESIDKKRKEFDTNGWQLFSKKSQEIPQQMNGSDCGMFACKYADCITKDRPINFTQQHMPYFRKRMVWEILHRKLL

[7] = molecular target: T5, Sentrin-specific protease 1; assay: Dose response confirmation of small molecule inhibitors of the catalytic domain of the SUMO protease, SENP1 in a FRET assay.; format: functional; details: read-out: IC50_Mean
[8] = molecular target: T6, Rac GTPase-activating protein 1 (Homo sapiens, UniProt Q9H0H5); assay: MgcRacGAP GTPase-activating activity inhibitors, confirmation, biochemical, ADP Hunter fluorescence, primary and confirmatory (AID 624330); format: functional
T6 sequence (Q9H0H5 whole entry): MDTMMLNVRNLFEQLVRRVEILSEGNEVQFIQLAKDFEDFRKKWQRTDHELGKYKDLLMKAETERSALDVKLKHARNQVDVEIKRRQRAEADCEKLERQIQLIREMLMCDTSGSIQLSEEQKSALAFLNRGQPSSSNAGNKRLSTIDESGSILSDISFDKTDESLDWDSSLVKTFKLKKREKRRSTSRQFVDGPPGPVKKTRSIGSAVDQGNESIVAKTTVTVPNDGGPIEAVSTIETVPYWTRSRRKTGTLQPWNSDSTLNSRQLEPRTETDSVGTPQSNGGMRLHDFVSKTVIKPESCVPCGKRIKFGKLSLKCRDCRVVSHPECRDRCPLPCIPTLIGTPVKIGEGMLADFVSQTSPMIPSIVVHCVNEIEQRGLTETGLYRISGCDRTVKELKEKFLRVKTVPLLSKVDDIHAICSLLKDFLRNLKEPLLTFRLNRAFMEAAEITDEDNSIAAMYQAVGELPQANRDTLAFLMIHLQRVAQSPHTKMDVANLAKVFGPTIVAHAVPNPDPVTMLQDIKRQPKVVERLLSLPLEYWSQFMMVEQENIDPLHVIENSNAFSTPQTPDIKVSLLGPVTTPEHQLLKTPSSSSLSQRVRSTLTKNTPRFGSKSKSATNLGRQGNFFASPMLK

[9] = molecular target: Glucose-6-phosphate 1-dehydrogenase (Homo sapiens, UniProt P11413); assay: human G6PD enzyme inhibitors, dose response, selectivity assay for P. falciparum G6PD inhibitor project, biochemical, fluorescence (AID 504792); format: functional
Beta Lactamase = Beta Lactamase (Pseudomonas aeruginosa, UniProt Q932Y6); assay: beta-lactamase reporter inhibitor potency, dose response, artefact control for NOD2-RIPK2 interaction inhibitor project, BLA reporter cells, FRET fluorescence (AID 651552); format: functional, cell-based
[10] = Fluorescence-based cell-based high throughput dose response assay for inhibitors of the interaction of nucleotide-binding oligomerization domain containing 2 (NOD2) and the receptor-interacting serine-threonine kinase 2 (RIPK2).; format: functional; details: Homo sapiens
[11] = molecular target: Mitochondrial peptide methionine sulfoxide reductase (Bos taurus, UniProt P54149); assay: Absorbance-based biochemical high throughput dose response assay for activators of Methionine sulfoxide reductase A (MsrA).; format: functional
Hexokinase = molecular target: T7, Hexokinase (Trypanosoma brucei, UniProt Q38C41); assay: Confirmation assay for inhibitors of Trypanosoma brucei hexokinase 1-Analogue-first series. [Related pubchem assays (depositor defined):AID1430, AID1632, AID2516, AID2560, AID2579, AID2600, AID449725, AID492951]; format: functional
T7 sequence (Q38C41 whole entry): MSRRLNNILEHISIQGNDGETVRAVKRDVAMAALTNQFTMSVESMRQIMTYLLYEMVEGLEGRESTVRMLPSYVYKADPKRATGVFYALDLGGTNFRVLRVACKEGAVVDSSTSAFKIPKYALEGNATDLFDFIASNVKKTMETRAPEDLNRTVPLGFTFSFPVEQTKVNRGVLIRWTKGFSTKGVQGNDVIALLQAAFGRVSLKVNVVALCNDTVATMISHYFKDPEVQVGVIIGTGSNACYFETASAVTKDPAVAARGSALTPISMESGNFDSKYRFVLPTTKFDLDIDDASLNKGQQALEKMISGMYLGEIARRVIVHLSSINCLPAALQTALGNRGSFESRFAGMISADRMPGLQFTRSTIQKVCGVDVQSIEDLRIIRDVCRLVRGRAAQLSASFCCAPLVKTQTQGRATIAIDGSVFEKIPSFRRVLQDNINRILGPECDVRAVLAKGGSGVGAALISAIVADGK

[12] = molecular target: T8, Carboxy-terminal domain RNA polymerase II polypeptide A small phosphatase 1 (Homo sapiens, UniProt Q9GZU7); assay: inhibitors of CTDSP1, concentration-response testing, biochemical assay, absorbance-based, actives from ultra-high-throughput screening (AID 540297); format: functional
T8 sequence (Q9GZU7 whole entry): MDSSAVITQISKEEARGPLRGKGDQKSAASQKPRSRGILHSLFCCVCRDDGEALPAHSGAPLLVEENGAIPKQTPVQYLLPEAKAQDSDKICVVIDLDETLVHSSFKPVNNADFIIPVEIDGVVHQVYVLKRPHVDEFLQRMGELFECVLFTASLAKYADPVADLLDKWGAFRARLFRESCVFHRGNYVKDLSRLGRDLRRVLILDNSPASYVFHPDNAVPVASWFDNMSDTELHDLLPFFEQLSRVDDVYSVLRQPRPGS

[13] = inhibitors of HIV Env-driven cell fusion, dose response, cherry-pick (AID 652057); format: functional, cell-based
[14] = CEM21 lymphoblast cell cytotoxicity, dose response, cytotoxicity control for viral fusion inhibitor project, CellTiter-Glo luminescence, cherry-picked (AID 652042); format: functional, cell-based;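 note: potency for signal decrease meaning cytotoxicity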

T1 sequence (P65502 whole entry): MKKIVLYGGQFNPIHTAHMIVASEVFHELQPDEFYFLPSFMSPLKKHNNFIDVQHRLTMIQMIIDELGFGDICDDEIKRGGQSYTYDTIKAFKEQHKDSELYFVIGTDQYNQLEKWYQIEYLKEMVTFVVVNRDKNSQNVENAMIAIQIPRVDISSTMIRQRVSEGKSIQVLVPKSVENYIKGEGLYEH
Mitochondrial peptide methionine sulfoxide reductase, sequence (P54149 whole entry): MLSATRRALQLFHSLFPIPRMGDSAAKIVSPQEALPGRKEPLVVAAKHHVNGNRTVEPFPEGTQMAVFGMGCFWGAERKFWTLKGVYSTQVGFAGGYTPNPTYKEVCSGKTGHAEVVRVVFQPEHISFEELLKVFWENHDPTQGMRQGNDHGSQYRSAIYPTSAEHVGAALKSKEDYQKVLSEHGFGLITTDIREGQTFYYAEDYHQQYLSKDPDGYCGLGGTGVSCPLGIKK
Beta Lactamase, sequence (Q932Y6 whole entry, the tested form may be a part): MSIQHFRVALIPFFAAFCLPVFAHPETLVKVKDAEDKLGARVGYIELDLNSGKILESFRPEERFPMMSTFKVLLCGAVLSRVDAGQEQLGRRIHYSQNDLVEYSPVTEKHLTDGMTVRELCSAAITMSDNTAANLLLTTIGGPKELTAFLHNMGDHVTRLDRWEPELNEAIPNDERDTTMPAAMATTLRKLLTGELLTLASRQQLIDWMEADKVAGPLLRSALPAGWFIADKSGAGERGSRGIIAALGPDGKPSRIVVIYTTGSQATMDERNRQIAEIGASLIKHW
Glucose-6-phosphate 1-dehydrogenase, sequence (P11413 whole entry): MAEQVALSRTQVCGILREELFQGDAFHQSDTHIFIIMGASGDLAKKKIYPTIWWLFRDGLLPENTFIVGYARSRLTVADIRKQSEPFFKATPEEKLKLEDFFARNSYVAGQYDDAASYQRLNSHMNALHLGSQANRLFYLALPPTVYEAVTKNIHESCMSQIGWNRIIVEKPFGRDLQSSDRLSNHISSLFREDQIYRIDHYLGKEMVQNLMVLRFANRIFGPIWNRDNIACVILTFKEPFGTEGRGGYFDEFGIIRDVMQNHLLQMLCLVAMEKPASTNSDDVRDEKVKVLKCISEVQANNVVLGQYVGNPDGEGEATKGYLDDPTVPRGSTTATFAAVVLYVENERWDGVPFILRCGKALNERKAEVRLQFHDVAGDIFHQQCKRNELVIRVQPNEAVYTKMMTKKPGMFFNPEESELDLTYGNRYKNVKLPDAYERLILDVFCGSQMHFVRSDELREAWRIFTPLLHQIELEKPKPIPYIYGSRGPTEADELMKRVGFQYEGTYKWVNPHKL
Nonstructural protein 1, sequence (Q194T2 whole entry): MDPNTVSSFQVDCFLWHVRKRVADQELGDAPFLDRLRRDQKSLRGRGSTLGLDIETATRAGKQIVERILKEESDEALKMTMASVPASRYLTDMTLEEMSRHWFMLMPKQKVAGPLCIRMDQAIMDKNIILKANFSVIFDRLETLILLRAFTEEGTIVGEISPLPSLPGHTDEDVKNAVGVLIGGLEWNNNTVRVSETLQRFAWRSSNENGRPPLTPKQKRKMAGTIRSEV
Paired box protein Pax-8, sequence (Q06710 whole entry): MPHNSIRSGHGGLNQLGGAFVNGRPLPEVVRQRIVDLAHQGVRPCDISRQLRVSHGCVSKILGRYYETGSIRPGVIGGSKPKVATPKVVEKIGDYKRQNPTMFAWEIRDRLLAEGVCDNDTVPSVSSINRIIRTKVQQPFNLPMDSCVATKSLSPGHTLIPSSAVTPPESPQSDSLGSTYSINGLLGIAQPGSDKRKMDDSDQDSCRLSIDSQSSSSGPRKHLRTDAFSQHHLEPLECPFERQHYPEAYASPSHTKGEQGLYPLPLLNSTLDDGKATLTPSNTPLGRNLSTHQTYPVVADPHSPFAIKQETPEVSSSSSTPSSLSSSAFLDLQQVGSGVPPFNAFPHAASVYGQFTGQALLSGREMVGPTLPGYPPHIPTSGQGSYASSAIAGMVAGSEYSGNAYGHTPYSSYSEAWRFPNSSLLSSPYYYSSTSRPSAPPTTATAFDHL

CCn1c(SCC(=O)Nc2nc(-c3ccc(C)cc3)cs2)nnc1-c1ccccc1O
IC50 [1]: 17.9 µM (active)
EC50 (Protein RecA): 174 µM (active)
AC50 [2]: 3.46 µM (active)
IC50 [3]: 41.6 µM (active)

CCS(=O)(=O)c1ccc(N=Nc2ccc(O)c3ncccc23)c(OC)c1
AC50 (Paired box protein Pax-8): 1.19 µM (active)
AC50 [4]: 9.23 µM (active)
AC50 [5]: 50.2 µM (active)
IC50 (Nonstructural protein 1): 9.78 µM (active)

COC(=O)C1=CC(C(=O)c2cccs2)=NN(c2ccc(OC)cc2)C1C(=O)OC (stereo not drawn)
IC50 [6]: 27.9 µM (inactive)
IC50 [7]: 34.5 µM (inactive)

O=c1c2ccc(F)cc2sn1-c1ccccc1
IC50 [8]: 36.4 µM (active)
IC50 [9]: 11.8 µM (active)
IC50 (Beta Lactamase): 23.4 µM (inactive)
IC50 [10]: 5.43 µM (active)
EC50 [11]: > 104 µM (inactive)
IC50 (Hexokinase): 2.31 µM (active)

COc1cccc(N2[C@@H](CC(=O)O)c3cc(C(F)(F)F)ccc3S2(=O)=O)c1
IC50 [1]: 17.4 µM (active)
IC50 [3]: 31.7 µM (active)
IC50 [12]: 5.53 µM (active)

C[C@@H]1CN([C@@H](C)CO)C(=O)c2cccc(NC(=O)c3cnccn3)c2O[C@H]1CN(C)Cc1ccc(Cl)c(Cl)c1
AC50 [13]: 53.4 µM (active)
AC50 [14]: 49.9 µM (active)

COc1ccc(O)c(/C=N/n2c(-c3ccco3)cs/c2=N\c2cccnc2)c1
IC50 [6]: 49.7 µM (inactive)
IC50 [7]: 23.1 µM (inactive)
